Two molecules from ChEMBL document CHEMBL5532664, “Discovery, Optimization, and Evaluation of Potent and Selective DNA-PK Inhibitors in Combination with Chemotherapy or Radiotherapy for the Treatment of Malignancies” (J Med Chem, 2024) can be followed below.

Data set [1] can be described thus: in vivo. The conditions noted are these: Sprague-Dawley, rat, iv, 5 mg/kg.
In data set [2] the test system is NCI-H460. Description: Antitumor activity against human NCI-H460 cells xenografted in BALB/ c nude mouse assessed as inhibition of tumor growth at 100 mg/kg, po administered once daily with 2 Gy irradiation and measured upto 7 days by vernier caliper analysis. The format is functional, organism-based. The conditions noted are these: time <= 7.0 day. A general note: A xenograft is tissue or cells of one species grown in another, often human tumour cells in immunodeficient mice.

A short description of data set [3]: in vivo. The conditions noted are these: Sprague-Dawley, rat, iv, 5 mg/kg. The source holds these as a separate data set.
For data set [4] the following is noted: rat, in vivo, po, 5 mg/kg, 24 h.
Data set [5] in a line: in vivo. The note with it: Sprague-Dawley, rat, po, 5 mg/kg.
In data set [6] the test system is HCT-116. The data set can be described thus: Inhibition of colony formation in human HCT-116 cells preincubated with compound for 1 hr followed by exposure to 2 Gy gamma irradiation and measured after 7 days by crystal violet staining based chemiluminescence assay. The data set is classed as functional, cell-based. The note with it: HCT-116, light or radiation study.

Data set [7] in a line: in vivo. The note with it: Sprague-Dawley, rat, po, 5 mg/kg. This is another data set of the same source.
For data set [8], the system named is HCT-116. Description: Inhibition of colony formation in human HCT-116 cells at […] preincubated with compound for 1 hr followed by exposure to 2 Gy gamma irradiation and measured after 7 days by crystal violet staining based chemiluminescence assay relative to control. The format is functional. The conditions noted are these: HCT-116, light or radiation study, dose 0.25 µM, time 169 hrs.

Data set [9] is described as follows: Toxicity in BALB/c nude mouse assessed as effect on body weight loss at 15 mg/kg, po measured upto 28 days […]. The data set is classed as organism-based. The conditions noted are these: in vivo, 672 h, time < 28 day.
The test system of data set [10] is A549. The data set can be described thus: Antitumor activity against human A549 cells xenografted in BALB/c nude mouse assessed as tumor growth inhibition at 15 mg/kg, po administered once daily measured upto 26 days in presence of paclitaxel by vernier caliper analysis relative to control. The conditions noted are these: A549, 624 h, time <= 26 day, read-out: TGI. The data set is classed as functional.

Data set [11] has as its system HCT-116. Description: Induction of cell cycle arrest in human HCT-116 cells assessed as accumulation of cells S phase at 1000 nM incubated for 1 hr followed by exposure to 2 Gy gamma irradiation and measured after 48 hrs propidium iodide staining based analysis (reference value: 21.35%). The format is functional. The conditions noted are these: time 49 hrs.
Data set [12] has as its system HCT-116. The data set can be described thus: Induction of cell cycle arrest in human HCT-116 cells assessed as accumulation of cells S phase at 2000 nM incubated for 1 hr followed by exposure to 2 Gy gamma irradiation and measured after 48 hrs propidium iodide staining based analysis (reference value: 21.35%). The format is functional. The note with it: time 49 hrs.

For data set [13], the system named is HCT-116. Description: Induction of cell cycle arrest in human HCT-116 cells assessed as accumulation of cells G2/M phase at 500 nM incubated for 1 hr followed by exposure to 2 Gy gamma irradiation and measured after 48 hrs propidium iodide staining based analysis (reference value: 18.65%). The data set is classed as functional. The note with it: time 49 hrs.

In data set [14] the test system is HCT-116. Description: Induction of cell cycle arrest in human HCT-116 cells assessed as accumulation of cells G2/M phase at 500 nM (reference value: […]%). The format is functional.
In data set [15] the test system is HCT-116. Description: Inhibition of bleomycin-induced DNA-double stranded breaks in human HCT-116 cells assessed as reduction in gammaH2AX level pretreated for 1 hrs followed by bleomycin addition and measured after 6 hrs Western blot analysis. The format is functional, cell-based. The conditions noted are these: dose 0.03-30 µM, time 7.0 hrs. A general note: In western blotting, separated proteins are transferred to a membrane and probed.

Data set [16] relates to BT-474. Description: Antitumor activity against human BT-474 cells xenografted in BALB/c nude mouse assessed as inhibition of tumor growth at 0.25 to 12.5 mg/kg, po measured upto 10 days in presence of liposome doxorubicin by vernier caliper analysis. The data set is classed as functional, organism-based. The conditions noted are these: dose lower […], dose upper 12.5 mg/kg, time <= 10.0 day.

The test system of data set [17] is HCT-116. Description: Induction of cell cycle arrest in human HCT-116 cells assessed as accumulation of cells S phase at 250 nM (reference value: 19.72%). The data set is classed as functional.
The test system of data set [18] is HCT-116. Description: Induction of cell cycle arrest in human HCT-116 cells assessed as accumulation of cells G0/G1 phase at 500 nM incubated for 1 hr followed by exposure to 2 Gy gamma irradiation and measured after 48 hrs propidium iodide staining based analysis (reference value: 60.01%). The conditions noted are these: time 49 hrs. The data set is classed as functional.

For data set [19], the system named is HCT-116. The data set can be described thus: Induction of cell cycle arrest in human HCT-116 cells assessed as accumulation of cells S phase at 2000 nM (reference value: 19.72%). The data set is classed as functional.
Data set [20] concerns HCT-116. The data set can be described thus: Induction of cell cycle arrest in human HCT-116 cells assessed as accumulation of cells S phase at 1000 nM (reference value: 19.72%). The format is functional.
Data set [21] relates to HCT-116. The data set can be described thus: Induction of cell cycle arrest in human HCT-116 cells assessed as accumulation of cells S phase at 250 nM incubated for 1 hr followed by exposure to 2 Gy gamma irradiation and measured after 48 hrs propidium iodide staining based analysis (reference value: 21.35%). The data set is classed as functional. The note with it: time 49 hrs.

In data set [22] the test system is HCT-116. Description: Induction of cell cycle arrest in human HCT-116 cells assessed as accumulation of cells S phase at 500 nM incubated for 1 hr followed by exposure to 2 Gy gamma irradiation and measured after 48 hrs propidium iodide staining based analysis (reference value: 21.35%). The data set is classed as functional. The note with it: time 49 hrs.
Data set [23] has as its system HCT-116. The data set can be described thus: Induction of cell cycle arrest in human HCT-116 cells assessed as accumulation of cells G0/G1 phase at 2000 nM incubated for 1 hr followed by exposure to 2 Gy gamma irradiation and measured after 48 hrs propidium iodide staining based analysis (reference value: 60.01%). The data set is classed as functional. The conditions noted are these: time 49 hrs.

Data set [24] has as its system HCT-116. Description: Induction of cell cycle arrest in human HCT-116 cells assessed as accumulation of cells G0/G1 phase at 500 nM (reference value: 66.45%). The data set is classed as functional.
The subject of data set [25] is HCT-116. Description: Induction of cell cycle arrest in human HCT-116 cells assessed as accumulation of cells G0/G1 phase at 1000 nM incubated for 1 hr followed by exposure to 2 Gy gamma irradiation and measured after 48 hrs propidium iodide staining based analysis (reference value: 60.01%). The data set is classed as functional. The conditions noted are these: time 49 hrs.

Data set [26] has as its system HCT-116. The data set can be described thus: Induction of cell cycle arrest in human HCT-116 cells assessed as accumulation of cells G2/M phase at 250 nM incubated for 1 hr followed by exposure to 2 Gy gamma irradiation and measured after 48 hrs propidium iodide staining based analysis (reference value: 18.65%). The data set is classed as functional. The conditions noted are these: time 49 hrs.

In data set [27] the test system is HCT-116. The data set can be described thus: Induction of cell cycle arrest in human HCT-116 cells assessed as accumulation of cells G0/G1 phase at 2000 nM (reference value: 66.45%). The format is functional.
In data set [28] the test system is HCT-116. Description: Induction of cell cycle arrest in human HCT-116 cells assessed as accumulation of cells G0/G1 phase at 250 nM incubated for 1 hr followed by exposure to 2 Gy gamma irradiation and measured after 48 hrs propidium iodide staining based analysis (reference value: 60.01%). The format is functional. The note with it: time 49 hrs.
Data set [29] deals with HCT-116. The data set can be described thus: Induction of cell cycle arrest in human HCT-116 cells assessed as accumulation of cells G0/G1 phase at 1000 nM (reference value: 66.45%). The data set is classed as functional.
Data set [30] concerns HCT-116. The data set can be described thus: Induction of cell cycle arrest in human HCT-116 cells assessed as accumulation of cells G2/M phase at 1000 nM (reference value: […]%). The data set is classed as functional.
The subject of data set [31] is HCT-116. Description: Induction of cell cycle arrest in human HCT-116 cells assessed as accumulation of cells S phase at 500 nM (reference value: 19.72%). The data set is classed as functional.
The subject of data set [32] is HCT-116. The data set can be described thus: Induction of cell cycle arrest in human HCT-116 cells assessed as accumulation of cells G2/M phase at 2000 nM (reference value: […]%). The format is functional.
In data set [33] the test system is HCT-116. Description: Induction of cell cycle arrest in human HCT-116 cells assessed as accumulation of cells G2/M phase at 250 nM (reference value: […]%). The data set is classed as functional.
For data set [34], the system named is A549. Description: Antitumor activity against human A549 cells xenografted in BALB/c nude mouse assessed as tumor growth inhibition at 7.5 mg/kg, po administered once daily measured upto 26 days in presence of paclitaxel by vernier caliper analysis relative to control. The format is functional. The conditions noted are these: A549, 624 h, time <= 26 day, read-out: TGI.

Data set [35] concerns HCT-116. The data set can be described thus: Induction of cell cycle arrest in human HCT-116 cells assessed as accumulation of cells G2/M phase at 2000 nM incubated for 1 hr followed by exposure to 2 Gy gamma irradiation and measured after 48 hrs propidium iodide staining based analysis (reference value: 18.65%). The data set is classed as functional. The note with it: time 49 hrs.

Data set [36] has as its system HCT-116. Description: Induction of cell cycle arrest in human HCT-116 cells assessed as accumulation of cells G0/G1 phase at 250 nM (reference value: 66.45%). The data set is classed as functional.
Data set [37] relates to HCT-116. Description: Induction of cell cycle arrest in human HCT-116 cells assessed as accumulation of cells G2/M phase at 1000 nM incubated for 1 hr followed by exposure to 2 Gy gamma irradiation and measured after 48 hrs propidium iodide staining based analysis (reference value: 18.65%). The format is functional. The note with it: time 49 hrs.

In general, Cmax refers to the maximum level reached in the sampled fluid or tissue. By AUC(0-t) is commonly meant exposure summed from dosing to a finite time, without extrapolation to infinity. As a reminder, the bioavailability is the share of a dose that reaches the circulation, judged against a reference dose that is usually intravenous. Higher therefore signals much systemic uptake. As a reminder, the IC50 is the midpoint of a concentration-inhibition curve. Usually inhibition stands for the percentage by which the read-out fell short of the control.

The source made the active and inactive calls. No cut-off for these calls is given here.

Regarding `Cc1cc2ncnn2cc1Nc1ncc2c(n1)n(C1CCOCC1)c(=O)n2C` [AZD-7648], the Cmax at 24 h in data set [1] is 2620 ng/mL; in [7], 836 ng/mL. Besides, the result in data set [2] was Active. For the same molecule, the AUC(0-t) at 24 h in data set [3] was found to be 3150 ng·h/mL. In addition, in data set [4], the AUCt stood at 2458.98 ng·h/mL. The bioavailability at 24 h in [5] was 78.1%. The IC50 in [6] amounted to 38.1 nM. Further, in data set [8], the inhibition at […] was 98.2%. For the same molecule, the Activity result in data set [9] was “Non-Toxic”. Moreover, the inhibition in vivo at 15 mg/kg in data set [10] amounted to 46.1%.

As for `Cc1cc(-c2cnn(C)c2)ncc1Nc1ncc2c(n1)n(C1CCOCC1)c(=O)n2C`, the Activity in data set [11] is listed as 13.82%; in data set [12], 9.03%; in data set [13], 30.99%; in data set [14], 15.5%; in [17], 19.94%; in data set [18] it was 45.35%. Also, the Activity is reported as 22.92% in [19]; 21.75% in data set [20]; 22.74% in data set [21]; 25.63% in data set [22]; 24.76% in data set [23]; 60.76% in data set [24]. Moreover, the Activity in [25] is 32.64%; in data set [26] it was 21.65%; in data set [27], 60.62%; in data set [28], 53.41%; in data set [29] it was 61.36%; in data set [30] it was 14.91%. In addition, the Activity in [31] came out at 23.44%; in [32], 16.46%; in data set [33] it was 15.81%; in data set [35], 69.21%; in data set [36], 65.15%; in [37], 53.54%. The result in [2] and in [16] was Active. In addition, the inhibition result in data set [15] is “Dose-Dependent Effect”. Besides, the IC50 in data set [6] is 33.3 nM. In addition, the inhibition at […] in [8] amounted to 99.4%. Also, in data set [34], the inhibition in vivo at 7.5 mg/kg is 78.8%.
